# EP0106571A2, “Prophylactic substance or composition” (priority 1982, dated 1984)
# Where two headings read alike, the source gives them in different places.
# What was measured:
# human hepatoma cells = assay: cells; details: for inhibition at 20 µg/mL: Homo sapiens, read-out: Reduction in growth rate (%), daily GLA 20 µg/ml; for GLA supplemented cell number (x10^4) Mean: daily GLA 20 µg/ml, n = 4
# Protocol: To control flasks only 20µl of the sodium carbonate vehicle was added.
# Cells: Cells of the human primary carcinoma of the liver line were provided by Dr. J.J. Alexander of the Division of Virology, Department of Microbiology, Medical University of South Africa. These cells were maintained in Grenier plastic flasks in McCoys 5A medium as described in Example I.
# The cells were seeded in the standard growth medium from stock cultures into Greiner 50 ml plastic flasks at subconfluent densities ranging from 2 x 10^5 to 3 x 10^5 cells per flask. […] These culture flasks were included in a humidified atmosphere of 5% CO2, 95% air at 37°. At the end of each experiment the detached, dead cells were discarded with the culture medium. The living attached cells were trypsinised and then counted using a Coulter counter. Cell viability was checked by trypan blue dye exclusion. In addition, the culture flasks were viewed and photographed daily under a Nikon diaphot inverted phase microscope.
# The cells were counted after 4 days in culture.
# [1] = tested on: MG63 Human osteogenic sarcoma cells; assay: Colony formation after 7 days with two additions of fatty acid; assay type: cell-based; details: for suppressive action on proliferation and colony formation: dose series 5 to 100 µg/ml; for cell growth and colony formation: levels of supplementation above 40 µg/ml culture medium; for cells or colonies found on microscopic examination: supplementation levels between 40 and 100 µg/ml; for proliferation suppressive action: higher levels of supplementation, 80 and 100µg/ml
# Protocol: MG63 Human osteogenic sarcoma cells were seeded in culture flasks as described in Examples 4 and 5. 2,000 cells were seeded in each flask. Duplicate sets of flasks were used for each of the fatty acids tested. The following fatty acids dissolved in standard growth medium were added to the cells in culture, after allowing 2 days for cell attachment, and again after a further 3 days. Each culture therefore had only 2 additions of the relevant fatty acid. The cells were stained and examined at the end of 7 days in culture: • 1. Culture medium only - control. • 2. 5, 10, 20, 40, 60, 80 and 100µg oleic acid respectively /ml culture medium. […] 5; 10, 20, 40, 60, 80 and 100µg LA respectively /ml culture medium. • 4. 5, 10, 20, 40, 60, 80 and […] ALA respectively ./ml culture. medium. • 5. 5, 10, 20, 40, 60, 80 and 100µg/ml AA respectively /ml culture medium. • 6. 5, 10, 20, 40, 60, 80 and 100µg/ml EPA respectively /ml culture medium. • ..7.
# BL6 mouse melanoma cells [2] = assay: cells
# Protocol: (§1) Thus each culture set comprised 13 separate experiments. […] Each set of dosages was duplicated for both cell lines. Thus, a total of 280 separate cultures were used for these determinations. For statistical treatment an average value of each duplicate was used as n = I. • (i) Growth Curves Protocol: The cells were seeded in a standard growth medium (McCoys 5A medium) from stock cultures into Greiner 50 ml plastic flasks at subconfluent densities ranging from I x 10^5 cells/flask.
# Plates were incubated in a 5% C02 humidified atmosphere at 37 °C. For the final 24 hours, 0.4 µCl of [6^-3H]-thymidine or I µCl of L-[methyl -^3H] -methionine (New England Nuclear, Boston, Mass) was added to each incubation mixture on the micrplate. The cells were then collected using a Skatron automatic harvester onto glass fibre reinforced resin filters. The filters were dried and dissolved in 10 ml Picofluor ^TM30 (Packard). The [6-^3H] -thymidine incorporation into DNA and the L-[methyl-^3H] -methionine incorporation into proteins was counted on a Packard Tri-Carb scintillation counter.
# [3] = tested on: MG63 osteoid-sarcoma cells; details: for Cell count (x 10^6) + GLA Mean: MG63, seeding density 0,3, daily GLA, n = 4
# Source text: (§2) Cells: MG63. osteoid-sarcoma cells were obtained from Flow Laboratories. Oesophageal carcinoma cells were obtained from Prof. J. Alexander of the Department of Microbiology at Medunsa, South Africa. Control benign bovine kidney cells (MDBK) were from the same stock that were used in the previous examples.
# [4] = tested on: Oesophageal carcinoma cells; details: 10 µg GLA per day for six days; for Cell count (x 10^6) + GLA Mean: Oesophageal Carcinoma, seeding density 0,14, n = 4
# Source text: as §2
# [5] = tested on: benign bovine kidney cells (MDBK); details: for Cell count (x 10^6) + GLA Mean: MDBK, seeding density 0,3, daily GLA, n = 4
# Source text: as §2
# MDBK bovine kidney cells = details: any of the GLA doses (0.5 to 10 µg/ml), 7 days
# Protocol: as §1
# (§3) These cultures flasks were incubated in a humidified atmosphere of 5% C02, 95% air at 37°C for 7 days. After this period cell counts and viabilities were determined, the latter by trypan blue dye exclusion.
# (§4) Data Reduction and Statistical Analyses: Using the values of cell counts obtained as described above, the difference of each cell count from its control was expressed as a perecentage of the control. As the growth curves were repeated several times for each dose for both normal and cancer cells, the mean value and standard error was determined for each dose. […] For the purpose of presentation these percentage differences are expressed as the percentage reduction of growth rate (-GR%).
# BL6 mouse melanoma cells [6] = details: GLA doses above 7 µg/ml, single dose, 7 days, plateau of the curve
# Protocol: as §1, §3, §4
# BL6 mouse melanoma cells [7] = details: GLA 20 µg/ml daily for two weeks
# Protocol: Only 20µI of the sodium carbonate vehicle was added to control flasks.
# Malignant BL6 mouse melanoma cells were maintained in Griener plastic flasks (Labortechnik) containing 10% fetal calf serum (Flor Laboratories) and antibiotics. Stock cultures were refed twice weekly and were subcultured at. weekly intervals or sooner if required. The BL6 mouse melanoma cells were supplied by Dr. C. Albrecht, Department of Pharmacology, University of Stellenbosch, South Africa.
# Duplicates were set up for the three densities.
# The culture flasks were incubated in a humidified atmosphere of 5% C02, 95% air at 37°C. At the end of the two weeks period the culture flasks were stained using a 0.1% Amidoschwarz stain solution.
# [8] = tested on: Human osteogenic sarcoma cells; assay: Colony growth over three weeks with fatty acids or prostaglandins, Amidoschwarz stain; assay type: cell-based; details: for colonies in supplemented cultures: 20 µg/ml of medium added every second day, 500, 1,000 and 2,000 cell density cultures
# Protocol: Human osteogenic sarcoma cells were seeded into 50 ml Greiner plastic flasks and maintained exactly as explained in Example 4.
# At the end of three weeks the culture flasks were stained with a 0.1% Amidoschwarz stain solution.
# human cancer cells = assay: Proliferation suppressive effect of prostaglandins (statement, no method); assay type: cell-based; details: compared with PGEI; no conditions given
# [9] = 20 µg/ml of medium added every second day
# [10] = 5 µg/ml of medium added every second day
smiles,measurement,setting,value
"CCCCC/C=C\C/C=C\C/C=C\CCCCC(=O)O [GLA, gamma linolenic acid]",inhibition at 20 µg/mL,"human hepatoma cells; 24 h, day 1, versus control flasks (negative = more cells than control)",-44%
same,inhibition at 20 µg/mL,"human hepatoma cells; 48 h, day 2, versus control flasks",66%
same,inhibition at 20 µg/mL,"human hepatoma cells; 72 h, day 3, versus control flasks",78%
same,inhibition at 20 µg/mL,"human hepatoma cells; 96 h, day 4 Run 1, versus control flasks",87%
same,inhibition at 20 µg/mL,"human hepatoma cells; 96 h, day 4 Run 2, versus control flasks",78%
same,GLA supplemented cell number (x10^4) Mean,human hepatoma cells; day 1,"8,12 x10^4"
same,GLA supplemented cell number (x10^4) Mean,human hepatoma cells; day 2,"3,79 x10^4"
same,GLA supplemented cell number (x10^4) Mean,human hepatoma cells; day 3,"3,35 x10^4"
same,GLA supplemented cell number (x10^4) Mean,human hepatoma cells; day 4 Run 1,"2,96 x10^4"
same,GLA supplemented cell number (x10^4) Mean,human hepatoma cells; day 4 Run 2,"7,25 x10^4"
same,difference between growth rates of GLA supplemented and control cells,"human hepatoma cells; single dose of GLA 20 µg/ml on day 1, after four days",no significant difference
same,cell count,"human hepatoma cells; single dose of GLA 20 µg/ml on day 1, counted after four days, n = 8, spread printed ± 4.85",19.81 x 104
same,suppressive action on proliferation and colony formation,[1]; 2 additions,"almost equal, progressive, suppressive action"
same,cell growth and colony formation,[1]; 2 additions,completely suppressed
same,cells or colonies found on microscopic examination,[1],Not a single cell or colony of cells could be found
same,inhibition at 10 µg/mL,BL6 mouse melanoma cells [2]; read-out: reduction in methionine uptake,58.9%
same,inhibition at 10 µg/mL,BL6 mouse melanoma cells [2]; read-out: reduction in thymidine uptake,59.1%
same,Cell count (x 10^6) + GLA Mean,[3]; day 2,"0,19 x 10^6"
same,Cell count (x 10^6) + GLA Mean,[3]; day 3,"0,31 x 10^6"
same,Cell count (x 10^6) + GLA Mean,[3]; day 4,"0,48 x 10^6"
same,growth suppressive effect,"[3]; MG63 cells, daily GLA supplementation, over seven days, versus untreated MG63 cells, 10080 min",76%
same,Cell count (x 10^6) + GLA Mean,[4]; day 2,"0,14 x 10^6"
same,Cell count (x 10^6) + GLA Mean,[4]; day 3,"0,22 x 10^6"
same,Cell count (x 10^6) + GLA Mean,[4]; day 4,"0,31 x 10^6"
same,Cell count (x 10^6) + GLA Mean,[4]; day 5,"0,68 x 10^6"
same,Cell count (x 10^6) + GLA Mean,[4]; day 6,"0,63 x 10^6"
same,Cell count (x 10^6) + GLA Mean,[4]; day 7,"1,82 x 10^6"
same,Cell count (x 10^6) + GLA Mean,[4]; day 8,2.04 x 10^6
same,growth suppressive effect,"[4]; oesophageal carcinoma cells, end of the eight day period, 11520 min",69%
same,mean number of GLA supplemented cells compared with unsupplemented cells,"[5]; MDBK cells, end of the seven day period",exceed
same,Cell count (x 10^6) + GLA Mean,[5]; day 2,"0,43 x 10^6"
same,Cell count (x 10^6) + GLA Mean,[5]; day 3,"0,70 x 10^6"
same,Cell count (x 10^6) + GLA Mean,[5]; day 6,"1,53 x 10^6"
same,Cell count (x 10^6) + GLA Mean,[5]; day 7,"1,81 x 10^6"
same,response of growth rate to GLA,MDBK bovine kidney cells,no apparent response
same,percentage reduction of growth rate (-GR%),BL6 mouse melanoma cells [6],about 70%
same,growth and proliferation,BL6 mouse melanoma cells [7],completely suppressed
same,colonies observed,"BL6 mouse melanoma cells [7]; 500, 1,000 or 2,000 cells seeded per flask",not a single colony
same,growth suppressive effect on the cancer cells in culture (summary),[8]; [9],complete growth suppressive effect
same,colonies in supplemented cultures,[8],completely devoid of any colonies
"CC/C=C\C/C=C\C/C=C\CCCCCCCC(=O)O [ALA, a-linolenic acid, reference compound]",proliferation suppressive action,[1]; 2 additions,definite proliferation suppressive action
"CCCCCCCC/C=C\CCCCCCCC(=O)O [OA, Oleic acid]",densities of colonies,"[1]; all levels of supplementation between 5 and 100µg/ml, 2 additions, compared with culture medium only",equal densities of colonies
same,growth achieved relative to control cultures,[8]; [9],about the same growth as control cultures
same,growth suppressive effect on the cancer cells in culture (summary),[8]; [9],no suppressive effect
"CCCCC/C=C\C/C=C\C/C=C\C/C=C\CCCC(=O)O [AA, arachidonic acid]",suppressive action on proliferation and colony formation,[1]; 2 additions,"almost equal, progressive, suppressive action"
same,cell growth and colony formation,[1]; 2 additions,completely suppressed
same,cells or colonies found on microscopic examination,[1],Not a single cell or colony of cells could be found
same,growth suppressive effect on the cancer cells in culture (summary),[8]; [9],complete growth suppressive effect
same,colonies in supplemented cultures,[8],completely devoid of any colonies
CCCCC[C@H](O)/C=C/[C@@H]1[C@@H](CCCCCCC(=O)O)[C@@H](O)C[C@H]1O [PGF1a],growth achieved relative to control cultures,[8]; [10],about the same growth as the control cultures
same,growth suppressive effect on the cancer cells in culture (summary),[8]; [10],no effect at all
same,proliferation suppressive effect on human cancer cells,human cancer cells,no effect at all
"CCCCC[C@H](O)/C=C/[C@H]1[C@H](O)CC(=O)[C@@H]1CCCCCCC(=O)O [PGE1, prostaglandin E 1]",growth suppressive effect on the cancer cells in culture (summary),[8]; [10],more pronounced growth suppressive effect
same,activity at 5 µg/mL,"[8]; Homo sapiens, 504 h, 5 µg/ml of medium added every second day, read-out: growth achieved relative to control cultures",~25%
CCCCC[C@H](O)/C=C/[C@@H]1[C@@H](C/C=C\CCCC(=O)O)[C@@H](O)C[C@H]1O [PGF2a],proliferation suppressive effect on human cancer cells,human cancer cells,no effect at all
CCCCC[C@H](O)/C=C/[C@H]1C=CC(=O)[C@@H]1CCCCCCC(=O)O [PGA1],growth suppressive effect on the cancer cells in culture (summary),[8]; [10],more pronounced growth suppressive effect
"CCCCC/C=C\C/C=C\CCCCCCCC(=O)O [LA, linoleic acid]",proliferation suppressive action,[1]; 2 additions,definite proliferation suppressive action
same,growth suppressive effect on the cancer cells in culture (summary),[8]; [9],some growth suppressive effect
same,activity at 20 µg/mL,"[8]; Homo sapiens, 504 h, 20 µg/ml of medium added every second day, read-out: growth achieved relative to control cultures",~75%
